Test [1] concerns U87MG pLVX-IDH2 R140Q-neo cells. Nature of the test: U87MG pLVX-IDH2 R140Q-neo cell based assay, 2-HG by LC-MS. The note with it: Homo sapiens, U-87 MG.
The target in test [2] is IDH1 wt/IDH1 R132H heterodimer (Homo sapiens (Human), UniProt O75874, R132H). Nature of the test: In vitro assay for IDH1m R132H inhibitors, IDH1 wt/IDH1 R132H heterodimer, NADPH depletion (diaphorase/resazurin). The format is biochemical. The note with it: IDH1 wt/IDH1 R132H heterodimer, 300 μM NADP (saturated); read-out: IDH1 wt/R132H NADPH/NADP IC50 saturated. In a few lines:
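Read-out is NADPH left after α-KG reduction to 2-HG, measured via resorufin fluorescence after 5 min diaphorase/resazurin step at 25° C. Enzyme is sf9-expressed IDH1wt-his/IDH1R132H-flag heterodimer, pre-incubated 1 hr at room temperature with compound and cofactor. IC50s from DMSO stocks diluted 1:50.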
Background: Alamar Blue is a resazurin reagent that responds to reducing activity.

Test [3] relates to Neurosphere cells (TS603). Nature of the test: Cellular assay for IDH1m R132H inhibitors, 2-HG by LC-MS in neurosphere cells (TS603). The format is cell-based. The note with it: 2-HG in media at 48 hours. Here is the method: Cellular Assay for IDH1m R132H Inhibitors.
The following describes the experimental procedures that can be used to obtain data in column 4 of Table 5.
Neurosphere cells (TS603) are grown at 37 C in 5% CO2 in Stem Cell Technologies NeuroCult™ NS-A media supplemented with 1% Primocin, 1% Normocin, 0.0002% Heparin, 20 ng/mL EGF and 10 ng/mL bFGF. Cells are harvested, pelleted and resuspended in Accumax for cell dissociation and counting. Cells are counted and then resuspended in NeuroCult media with 2× heparin, EGF and bFGF at 4 million cells/10 mL media. 100 μl of cell solution are plated in each well of a 96 well with the exception of columns 1 and 12. Columns 1 and 12 contain 200 μL PBS. Compound dose responses are set up at a 2× concentration in Neurocult media without heparin, EGF and bFGF. The final concentration of DMSO is 0.25%. DMSO only control wells are plated in row H. The plates are then placed in the incubator for 48 hours. At 48 hours, 100 μl of media is removed from each well and analyzed by LC-MS for 2-HG concentrations. The cell plate is placed back in the incubator for another 24 hours. At 72 hours post compound addition, 10 mL/plate of Promega Cell Titer Glo reagent is thawed and mixed. The cell plate is removed from the incubator and allowed to equilibrate to room temperature. Then 100 μl of Promega Cell Titer Glo reagent is added to each well of media. The cell plate is then placed on an orbital shaker for 10 minutes and then allowed to sit at room temperature for 20 minutes. The plate is then read for luminescence with an integration time of 500 ms.

Another test has as its target IDH2 R140Q (Homo sapiens (Human), UniProt P48735, R140Q). The test can be described thus: In vitro assay for IDH2m R140Q inhibitors, cofactor depletion assay. The format is biochemical. The note with it: IDH2 R140Q enzyme. In a few lines: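 Remaining cofactor measured fluorimetrically: diaphorase/resazurin Stop Mix […], halting the reaction. Before that, mutant enzyme and compound sat 1 h at RT, then substrate mix (4 μM NADPH, 1.6 mM α-KG) was added for 16 h at RT.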

Chain of IDH1 wt/IDH1 R132H heterodimer (O75874 whole entry R132H): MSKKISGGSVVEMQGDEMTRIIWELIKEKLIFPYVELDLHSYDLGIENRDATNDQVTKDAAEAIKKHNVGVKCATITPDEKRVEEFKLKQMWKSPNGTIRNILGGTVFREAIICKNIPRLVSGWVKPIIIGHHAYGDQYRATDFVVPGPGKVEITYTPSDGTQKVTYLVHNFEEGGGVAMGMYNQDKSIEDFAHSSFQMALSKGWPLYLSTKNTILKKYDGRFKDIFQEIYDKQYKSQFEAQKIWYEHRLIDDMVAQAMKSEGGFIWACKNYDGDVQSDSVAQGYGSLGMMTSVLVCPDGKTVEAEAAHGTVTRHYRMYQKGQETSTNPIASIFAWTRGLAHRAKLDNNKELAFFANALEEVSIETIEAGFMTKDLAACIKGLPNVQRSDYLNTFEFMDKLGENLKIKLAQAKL
Chain of IDH1 wt/IDH1 R132H heterodimer (O75874 whole entry, stated change not applied): as the sequence (O75874 whole entry R132H) above, with H132R counted along it
Chain of IDH2 R140Q (P48735 40-452 R140Q): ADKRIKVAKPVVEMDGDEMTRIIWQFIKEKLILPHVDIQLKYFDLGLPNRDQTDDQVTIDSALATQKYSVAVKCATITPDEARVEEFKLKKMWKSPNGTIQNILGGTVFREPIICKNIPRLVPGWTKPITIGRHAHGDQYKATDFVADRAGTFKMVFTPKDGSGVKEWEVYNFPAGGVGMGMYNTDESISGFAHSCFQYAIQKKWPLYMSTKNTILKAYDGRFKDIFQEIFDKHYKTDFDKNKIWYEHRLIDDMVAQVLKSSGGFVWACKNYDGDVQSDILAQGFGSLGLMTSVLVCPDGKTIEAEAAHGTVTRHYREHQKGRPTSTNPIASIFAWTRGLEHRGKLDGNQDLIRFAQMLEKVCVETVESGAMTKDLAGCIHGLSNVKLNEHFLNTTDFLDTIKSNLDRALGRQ

As to `CC(F)(F)c1csc(-c2nc(NC3CCC(F)(F)CC3)nc(NC3CCC(F)(F)CC3)n2)n1` [Compound 357], the IC50 in test [1] is < 50 nM; in test [2] it was 50 to 100 nM; in test [3] it was < 50 nM; against IDH2 R140Q it was < 50 nM.
As to `CC(F)(F)c1cc(Nc2nc(NC3CC(F)(F)C3)nc(-c3cccc(C(F)(F)F)n3)n2)ccn1` [Compound 358], the IC50 (in test [1]; in test [2]; in test [3]; against IDH2 R140Q) was < 50 nM in each case.
Turning to `C[C@@H](Nc1nc(Nc2ccnc(-c3ccccc3)c2)nc(-c2cccc(C(F)(F)F)n2)n1)C(F)(F)F` [Compound 359], the IC50 (in test [1]; in test [2]; in test [3]; at IDH2 R140Q) was < 50 nM each time.
Consider `CC(F)(F)c1cc(Nc2nc(N[C@H]3CCC(F)(F)C3)nc(-c3cccc(C(F)(F)F)n3)n2)ccn1` [Compound 360], for which the IC50 (in test [1]; in test [2]; in test [3]; on IDH2 R140Q) was < 50 nM throughout.
Consider `CC(F)(F)c1cc(Nc2nc(NC3CCC(F)(F)CC3)nc(-c3cccc(C(F)(F)F)n3)n2)ccn1` [Compound 361], for which the IC50 was < 50 nM in test [1], 50 to 100 nM in test [2], < 50 nM in test [3] and < 50 nM on IDH2 R140Q.
As for `CC[C@H](Nc1nc(N[C@@H](CC)C(F)(F)F)nc(-n2ccc(C(F)(F)F)n2)n1)C(F)(F)F` [Compound 363], the IC50 is 50 to 100 nM in test [1], < 50 nM in test [2], < 50 nM in test [3] and 50 to 100 nM on IDH2 R140Q.
`C[C@@H](Nc1nc(Nc2ccnc(-c3ccc(Cl)cc3)c2)nc(-c2cccc(C(F)(F)F)n2)n1)C(F)(F)F` [Compound 364]: the IC50 in test [1] was < 50 nM; in test [2], 50 to 100 nM; in test [3], < 50 nM; on IDH2 R140Q, < 50 nM.
Regarding `FC(F)(F)c1cc(Nc2nc(NCC3CC3(F)F)nc(-c3cccc(C(F)(F)F)n3)n2)ccn1` (stereo not drawn) [Compound 365], the IC50 in test [1] was < 50 nM; in test [2], 50 to 100 nM; in test [3] it was < 50 nM; on IDH2 R140Q it was < 50 nM.
In the case of `CC(F)(F)c1cncc(-c2nc(NC3CC(F)(F)C3)nc(NC3CC(F)(F)C3)n2)n1` [Compound 366], the IC50 (in test [1]; in test [2]; in test [3]; at IDH2 R140Q) was < 50 nM in each case.
On to `Fc1cc(F)cc(Nc2nc(NC3CCC(F)(F)CC3)nc(-c3cncc(C(F)(F)F)n3)n2)c1` [Compound 367], for which the IC50 (in test [1]; in test [2]; in test [3]; against IDH2 R140Q) was < 50 nM throughout.
In the case of `Fc1cc(F)cc(Nc2nc(N[C@@H]3CCC(F)(F)C3)nc(-c3cncc(C(F)(F)F)n3)n2)c1` [Compound 369], the IC50 (in test [1]; in test [2]; in test [3]; on IDH2 R140Q) was < 50 nM each time.
In the case of `CC(F)(F)c1cncc(-c2nc(NC3CCC(F)(F)C3)nc(NC3CCC(F)(F)C3)n2)n1` (stereo not drawn) [Compound 370], the IC50 (in test [1]; in test [2]; in test [3]; against IDH2 R140Q) was < 50 nM each time.
Turning to `C[C@@H](Nc1nc(Nc2ccnc(-c3ccc(F)cc3)c2)nc(-c2cccc(C(F)(F)F)n2)n1)C(F)(F)F` [Compound 371], the IC50 (in test [1]; in test [2]; in test [3]; on IDH2 R140Q) was < 50 nM throughout.
Take `CC(F)(F)c1cccc(-c2nc(Nc3ccnc(C4(C#N)CC4)c3)nc(NC3CC(F)(F)C3)n2)n1` [Compound 372]: the IC50 (in test [1]; in test [2]; in test [3]; against IDH2 R140Q) was < 50 nM each time.
Take `N#CC1(c2cc(Nc3nc(N[C@H]4CCC(F)(F)C4)nc(-c4cncc(C(F)(F)F)n4)n3)ccn2)CC1` [Compound 373]: the IC50 (in test [1]; in test [2]; in test [3]; against IDH2 R140Q) was < 50 nM each time.

The values are drawn from patent US10028961B2, “Therapeutically active compounds and their methods of use” (AGIOS PHARMACEUTICALS, INC., priority 2013, dated 2018).
